Measured values reported in ChEMBL document CHEMBL5370611, “Discovery of 4,5,6,7-Tetrahydropyrazolo[1.5-a]pyrizine Derivatives as Core Protein Allosteric Modulators (CpAMs) for the Inhibition of Hepatitis B Virus” (J Med Chem, 2023).
Converted amounts (≈) assume the structure as drawn. The source made the active and inactive calls. No cut-off for these calls is given here.

Columns and labels:
[1] = Resistance index, ratio of EC50 for wild type Hepatitis B virus to EC50 for Hepatitis B virus harboring A181T transfected in human HepG2 cells measured after 6 days by qPCR analysis; assay type: functional; conditions: time 6 day
[2] = Resistance index, ratio of EC50 for wild type Hepatitis B virus to EC50 for Hepatitis B virus harboring A181V transfected in human HepG2 cells measured after 6 days by qPCR analysis; assay type: functional; conditions: time 6 day
[3] = Resistance index, ratio of EC50 for wild type Hepatitis B virus to EC50 for Hepatitis B virus harboring N236T transfected in human HepG2 cells measured after 6 days by qPCR analysis; assay type: functional; conditions: time 6 day
[4] = tested on: Hepatitis B virus; test: Inhibition of HBV Cp150 dimer assembly assessed as formation of large abnormal particles at 20 uM incubated for 2 hrs by transmission electron microscopy
[5] = tested on: Hepatitis B virus; test: Inhibition of HBV replication transfected in human HepG2.2.15 cells assessed as inhibition of encapsidated DNA formation in cell lysate incubated for 5 days by SDS-PAGE analysis; assay type: functional, organism-based; conditions: dose <= 10.0 µM, time 5.0 day
[6] = tested on: Hepatitis B virus; test: Inhibition of HBV replication transfected in human HepG2.2.15 cells assessed as assessed as induction of capsid degradation in cell lysate at upto 10 uM incubated for 5 days by SDS-PAGE analysis; assay type: functional, organism-based; conditions: time 5.0 day
[7] = tested on: Hepatitis B virus; test: Inhibition of HBV replication transfected in human HepG2.2.15 cells assessed as assessed as induction of total core protein degradation in cell lysate at upto 10 uM incubated for 5 days by SDS-PAGE analysis; assay type: functional, organism-based; conditions: time 5.0 day
[8] = Resistance index, ratio of EC50 for wild type Hepatitis B virus to EC50 for Hepatitis B virus harboring […] transfected in human HepG2 cells measured after 6 days by qPCR analysis; assay type: functional; conditions: time 6 day
[9] = tested on: Hepatitis B virus; test: Antiviral activity against HBV infected in human HepG2.2.15 cells assessed as reduction in HBV DNA replication measured after 5 days by qPCR analysis; assay type: functional, organism-based; conditions: HepG2.2.15, 120 h
[10] = Cytotoxicity against human HepDE19 cells assessed as reduction in cell viability measured after 5 days by CCK-8 method; assay type: functional; conditions: HepDE19, 120 h, time 5 day
[11] = Selectivity index, ratio of CC50 for human HepDE19 cells assessed as reduction in cell viability to EC50 for HBV infected in human HepG2.2.15 cells assessed as reduction in HBV DNA replication; assay type: toxicity, cell-based; conditions: HBV-infected HepG2.2.15 cells (EC50)
[12] = Metabolic stability in mouse liver microsomes assessed as clearance at 1 uM preincubated for 10 mins and measured upto 30 mins in presence of NADPH generating system by LC-MS/MS analysis; assay type: ADME, Microsome; conditions: time < 40 min
[13] = Metabolic stability in human liver microsomes assessed as clearance at 1 uM preincubated for 10 mins and measured upto 30 mins in presence of NADPH generating system by LC-MS/MS analysis; assay type: ADME, Microsome; conditions: time < 40 min
[14] = Lyophilization solubility of the compound in phosphate buffer at pH 6.5 incubated for 1 hr under stirring condition and 2 hrs under shaking condition by HPLC-UV analysis; assay type: physicochemical
[15] = Half life in C57BL/6 mouse plasma at 2 mg/kg, iv administered as single dose measured upto 24 hrs by LC-MS/MS analysis; assay type: ADME, organism-based
[16] = Volume of distribution at steady state in C57BL/6 mouse plasma at 2 mg/kg, iv administered as single dose measured upto 24 hrs by LC-MS/MS analysis; assay type: ADME, organism-based; conditions: read-out: Vdss
[17] = Clearance in C57BL/6 mouse plasma at 2 mg/kg, iv administered as single dose measured upto 24 hrs by LC-MS/MS analysis; assay type: ADME, organism-based
[18] = Cmax in C57BL/6 mouse plasma at 5 mg/kg, po administered as single dose measured upto 24 hrs by LC-MS/MS analysis; assay type: ADME, organism-based; parameters: dose 5 mg/kg, time < 24 hrs, route po
[19] = AUC (0 to infinity) in C57BL/6 mouse plasma at 2 mg/kg, iv administered as single dose measured upto 24 hrs by LC-MS/MS analysis; assay type: ADME, organism-based; parameters: dose 2 mg/kg, time < 24 hrs, route iv
[20] = AUC (0 to infinity) in C57BL/6 mouse plasma at 5 mg/kg, po administered as single dose measured upto 24 hrs by LC-MS/MS analysis; assay type: ADME, organism-based; parameters: time < 24 hrs, dose 5 mg/kg, route po
[21] = Oral bioavailability in C57BL/6 mouse plasma at 5 mg/kg administered as single dose measured upto 24 hrs by LC-MS/MS analysis; assay type: ADME, organism-based
[22] = AUC (0 to infinity) in C57BL/6 mouse liver at 5 mg/kg, po administered as single dose measured upto 24 hrs by LC-MS/MS analysis; assay type: ADME, organism-based; parameters: time < 24 hrs, dose 5 mg/kg, route po
[23] = Ratio of AUC (0 to infinity) in liver to plasma of C57BL/6 mouse liver at 5 mg/kg, po administered as single dose measured upto 24 hrs by LC-MS/MS analysis; assay type: ADME, organism-based; conditions: read-out: Ratio AUC
[24] = Plasma protein binding in mouse assessed as free fraction incubated for 5 hrs by LC-MS/MS analysis; assay type: ADME, cell-free
[25] = Resistance index, ratio of EC50 for wild type Hepatitis B virus to EC50 for Hepatitis B virus harboring M204 V transfected in human HepG2 cells measured after 6 days by qPCR analysis; assay type: functional; conditions: time 6 day
[26] = Resistance index, ratio of EC50 for wild type Hepatitis B virus to EC50 for Hepatitis B virus harboring L180M/M204V transfected in human HepG2 cells measured after 6 days by qPCR analysis; assay type: functional; conditions: time 6 day
[27] = Resistance index, ratio of EC50 for wild type Hepatitis B virus to EC50 for Hepatitis B virus harboring A181T/N236T transfected in human HepG2 cells measured after 6 days by qPCR analysis; assay type: functional; conditions: time 6 day
[28] = Resistance index, ratio of EC50 for wild type Hepatitis B virus to EC50 for Hepatitis B virus harboring A181V/N236T transfected in human HepG2 cells measured after 6 days by qPCR analysis; assay type: functional; conditions: time 6 day
[29] = Resistance index, ratio of EC50 for wild type Hepatitis B virus to EC50 for Hepatitis B virus harboring L180M/M204 V/S202G transfected in human HepG2 cells measured after 6 days by qPCR analysis; assay type: functional; conditions: time 6 day
[30] = Resistance index, ratio of EC50 for wild type Hepatitis B virus to EC50 for Hepatitis B virus harboring L180M/M204 V/M250 V/[…] transfected in human HepG2 cells measured after 6 days by qPCR analysis; assay type: functional; conditions: time 6 day
[31] = Resistance index, ratio of EC50 for wild type Hepatitis B virus to EC50 for Hepatitis B virus harboring L180M/M204 V/T184G/[…] transfected in human HepG2 cells measured after 6 days by qPCR analysis; assay type: functional; conditions: time 6 day
[32] = Resistance index, ratio of EC50 for wild type Hepatitis B virus to EC50 for Hepatitis B virus harboring L180M/M204 V/A194T transfected in human HepG2 cells measured after 6 days by qPCR analysis; assay type: functional; conditions: time 6 day

SMILES | EC50 [9] [nM] | CLhep predicted at 1 µM [12] [mL/min/kg] | CLhep predicted at 1 µM [13] [mL/min/kg] | solubility at 3 h [14] [µg/mL] | CC50 [10] [nM] | selectivity ratio [11] | also measured
Nc1ncnc2c1ncn2CCOCP(=O)(O)O [ADEFOVIR] | – | – | – | – | – | – | Ratio EC50 [1]: 2.2; Ratio EC50 [2]: 1.6; Ratio EC50 [3]: 2.5
COC(=O)C1=C(CN2CC(F)(F)C[C@H]2C(=O)O)NC(c2nccs2)=N[C@H]1c1ccc(F)cc1Cl | – | – | – | – | – | – | Activity [4]: Active; inhibition [5]: Dose-Dependent Effect; inhibition [6]: Active; inhibition [7]: Active
Cc1cn([C@@H]2C[C@@H](O)[C@H](CO)O2)c(=O)[nH]c1=O [TELBIVUDINE] | – | – | – | – | – | – | Ratio EC50 [8]: >165
Nc1ccn([C@@H]2CS[C@H](CO)O2)c(=O)n1 [LAMIVUDINE] | – | – | – | – | – | – | Ratio EC50 [25]: 19; Ratio EC50 [26]: >225; Ratio EC50 [27]: 29; Ratio EC50 [28]: 5.8
C=C1[C@H](CO)[C@@H](O)C[C@@H]1n1cnc2c(=O)[nH]c(N)nc21 [ENTECAVIR ANHYDROUS] | – | – | – | – | – | – | Ratio EC50 [29]: 62.8; Ratio EC50 [30]: 712.4; Ratio EC50 [31]: 607.1
C[C@H]1Cn2ncc(N3CCCC3=O)c2CN1C(=O)Nc1ccc(F)c(Cl)c1 | 36 | 50 | 11 | 330 (≈ 842 µM) | 94000 | 2600 | Ratio EC50 [25]: 1.8; Ratio EC50 [26]: 2.6; Ratio EC50 [27]: 2.2; Ratio EC50 [28]: 2.2; Ratio EC50 [1]: 1.6; Ratio EC50 [2]: 2.1; Ratio EC50 [3]: 1.4; Ratio EC50 [32]: 2.2; Ratio EC50 [29]: 1.9; Ratio EC50 [30]: 2.4; Ratio EC50 [31]: 2.9; Ratio EC50 [8]: 1.9; inhibition [5]: Dose-Dependent Effect; inhibition [6]: inactive; inhibition [7]: inactive
C[C@H](Cn1cnc2c(N)ncnc21)OCP(=O)(O)O [TENOFOVIR ANHYDROUS] | – | – | – | – | – | – | Ratio EC50 [27]: 3.3; Ratio EC50 [28]: 3.8; Ratio EC50 [1]: 0.9; Ratio EC50 [2]: 1.5; Ratio EC50 [3]: 3.3; Ratio EC50 [32]: 4.3

Continued, in another order:

EC50 [9] [nM] | CLhep predicted at 1 µM [12] [mL/min/kg] | CLhep predicted at 1 µM [13] [mL/min/kg] | solubility at 3 h [14] [µg/mL] | SMILES | CC50 [10] [nM] | selectivity ratio [11] | also measured
42 | 29 | 6.5 | 430 (≈ 1090 µM) | C[C@H]1Cn2ncc(N3CCCC3=O)c2CN1C(=O)Nc1cc(F)c(F)c(F)c1 | > 100000 | > 2380 | half-life [15]: 1 h; Vd [16]: 1 L/kg; clearance [17]: 13.7 mL/min/kg; Cmax [18]: 1130 ng/mL; AUC(0-inf) [19]: 2440 ng·h/mL; AUC(0-inf) [20]: 2640 ng·h/mL; bioavailability [21]: 43%; AUC(0-inf) [22]: 8550 ng·h/mL; Kp at 24 h [23]: 3.2; fraction unbound at 5 h [24]: 0.18
323 | 76 | 17 | 3 (≈ 8.92 µM) | O=C(Nc1ccccc1)N1CCn2ncc(-c3ccc(F)cc3)c2C1 | 66000 | 204 | –
110 | 80 | 16 | < 1 | O=C(Nc1ccc(F)c(Cl)c1)N1CCn2ncc(-c3ccc(F)cn3)c2C1 | 35000 | 320 | –
70 | 60 | 15 | – | O=C(Nc1ccc(Cl)c(F)c1)N1CCn2ncc(-c3ccc(F)cc3)c2C1 | 31000 | 443 | Activity [4]: inactive
377 | 63 | 21 | 5 (≈ 14.9 µM) | O=C(Nc1ccccc1)N1CCc2[nH]nc(-c3ccc(F)cc3)c2C1 | 59000 | 156 | –
40 | 45 | 8.7 | 515 (≈ 1260 µM) | C[C@@H]1[C@H](C)N(C(=O)Nc2cc(F)c(F)c(F)c2)Cc2c(N3CCCC3=O)cnn21 | > 100000 | > 2500 | –
36 | 66 | 17 | < 1 | O=C(Nc1ccc(F)c(Cl)c1)N1CCn2ncc(-c3ccc(F)cc3F)c2C1 | 42000 | 1180 | –
